Results from ChEMBL document CHEMBL5465560, “Selectivity Literature for EUbOPEN Chemogenomic Library” (2024).
Values belong to the compound of their own block, whether it stands above or below them.

What was measured:
[1] = molecular target: Tyrosine-protein kinase JAK1 (Homo sapiens, UniProt P23458); assay: Selectivity interaction (KinomeScan (DiscoverX)) EUB0001049a JAK1; conditions: at 1 µM
[2] = molecular target: Cyclin-dependent kinase 14 (Homo sapiens) (UniProt O94921); assay: Selectivity interaction (ActivX KiNativ screen (kinase selectivity in THP-1 cell lysates)) EUB0000639a CDK14; format: subcellular; conditions: lysate, at 0.2 µM
[3] = molecular target: Serine/threonine-protein kinase tousled-like 2 (Homo sapiens) (UniProt Q86UE8); assay: Selectivity interaction (ActivX KiNativ screen (kinase selectivity in THP-1 cell lysates)) EUB0000639a TLK2; format: subcellular; conditions: lysate, at 0.04 µM
[4] = molecular target: Tyrosine-protein kinase HCK (Homo sapiens) (UniProt P08631); assay: Selectivity interaction (ActivX KiNativ screen (kinase selectivity in THP-1 cell lysates)) EUB0000639a HCK; format: subcellular; conditions: lysate, at 1 µM
[5] = molecular target: NUAK family SNF1-like kinase 1 (Homo sapiens, UniProt O60285); assay: Selectivity interaction (Enzymatic assay) EUB0001199aCl NUAK1
[6] = molecular target: Mitogen-activated protein kinase 6 (Homo sapiens) (UniProt Q16659); assay: Selectivity interaction (KinomeScan (DiscoverX)) EUB0000695a MAPK6; conditions: at 100 nM
[7] = molecular target: T1, Ephrin type-B receptor 4 (Homo sapiens) (UniProt P54760); conditions: at 10 µM
T1 sequence (whole entry): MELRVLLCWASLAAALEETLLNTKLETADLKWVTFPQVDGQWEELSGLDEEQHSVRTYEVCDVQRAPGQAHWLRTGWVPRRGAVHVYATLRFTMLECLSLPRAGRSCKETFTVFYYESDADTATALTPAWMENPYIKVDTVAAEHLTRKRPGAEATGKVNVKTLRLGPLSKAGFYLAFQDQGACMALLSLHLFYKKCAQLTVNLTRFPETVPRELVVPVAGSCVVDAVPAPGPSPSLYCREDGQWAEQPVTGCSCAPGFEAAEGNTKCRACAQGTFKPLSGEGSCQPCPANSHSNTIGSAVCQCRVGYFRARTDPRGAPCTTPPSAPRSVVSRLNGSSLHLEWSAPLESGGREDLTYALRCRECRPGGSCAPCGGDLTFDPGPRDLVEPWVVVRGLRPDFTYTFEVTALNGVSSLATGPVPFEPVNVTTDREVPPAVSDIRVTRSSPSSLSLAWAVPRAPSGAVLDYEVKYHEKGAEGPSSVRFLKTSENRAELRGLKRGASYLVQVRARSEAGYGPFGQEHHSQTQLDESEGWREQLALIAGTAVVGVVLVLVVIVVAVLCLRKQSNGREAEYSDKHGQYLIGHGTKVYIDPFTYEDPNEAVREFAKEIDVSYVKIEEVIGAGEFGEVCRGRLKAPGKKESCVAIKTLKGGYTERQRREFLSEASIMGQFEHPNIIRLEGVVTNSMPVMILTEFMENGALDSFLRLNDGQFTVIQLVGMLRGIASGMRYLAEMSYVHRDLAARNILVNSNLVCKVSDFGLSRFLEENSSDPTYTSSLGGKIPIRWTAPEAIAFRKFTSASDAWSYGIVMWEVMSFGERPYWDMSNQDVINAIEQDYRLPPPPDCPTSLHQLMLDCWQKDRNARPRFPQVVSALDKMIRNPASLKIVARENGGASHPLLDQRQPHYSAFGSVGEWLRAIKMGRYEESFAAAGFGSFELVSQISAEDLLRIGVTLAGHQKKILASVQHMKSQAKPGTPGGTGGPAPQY

[8] = molecular target: Vascular endothelial growth factor receptor 3 (Homo sapiens, UniProt P35916); assay: Selectivity interaction (KinomeScan (DiscoverX)) EUB0000595a FLT4; conditions: at 10 µM
[9] = molecular target: Serine/threonine-protein kinase RIO2 (Homo sapiens) (UniProt Q9BVS4); assay: Selectivity interaction (KinomeScan (DiscoverX)) EUB0000229b RIOK2; conditions: at 10 µM
Ephrin type-A receptor 4 = Ephrin type-A receptor 4 (Homo sapiens, UniProt P54764); assay: Selectivity interaction (KinomeScan (DiscoverX)) EUB0001079a EPHA4; conditions: at 1 µM
[10] = molecular target: Transient receptor potential cation channel subfamily M member 6 (Homo sapiens) (UniProt Q9BX84); assay: Selectivity interaction (KinomeScan (DiscoverX)) EUB0000092b TRPM6; conditions: at 10 µM
[11] = molecular target: MAP kinase-activated protein kinase 2 (Homo sapiens, UniProt P49137); assay: Selectivity interaction (KinomeScan (DiscoverX)) EUB0000092b MAPKAPK2; conditions: at 10 µM
[12] = molecular target: MAP kinase-interacting serine/threonine-protein kinase 1 (Homo sapiens) (UniProt Q9BUB5); assay: Selectivity interaction (KinomeScan (DiscoverX)) EUB0000045b MKNK1
[13] = molecular target: Ribosomal protein S6 kinase alpha-4 (Homo sapiens) (UniProt O75676); assay: Selectivity interaction (KinomeScan (DiscoverX)) EUB0000607a RPS6KA4; conditions: at 10 µM
Sequence of Ribosomal protein S6 kinase alpha-4 (Homo sapiens) (O75676 whole entry, looked up): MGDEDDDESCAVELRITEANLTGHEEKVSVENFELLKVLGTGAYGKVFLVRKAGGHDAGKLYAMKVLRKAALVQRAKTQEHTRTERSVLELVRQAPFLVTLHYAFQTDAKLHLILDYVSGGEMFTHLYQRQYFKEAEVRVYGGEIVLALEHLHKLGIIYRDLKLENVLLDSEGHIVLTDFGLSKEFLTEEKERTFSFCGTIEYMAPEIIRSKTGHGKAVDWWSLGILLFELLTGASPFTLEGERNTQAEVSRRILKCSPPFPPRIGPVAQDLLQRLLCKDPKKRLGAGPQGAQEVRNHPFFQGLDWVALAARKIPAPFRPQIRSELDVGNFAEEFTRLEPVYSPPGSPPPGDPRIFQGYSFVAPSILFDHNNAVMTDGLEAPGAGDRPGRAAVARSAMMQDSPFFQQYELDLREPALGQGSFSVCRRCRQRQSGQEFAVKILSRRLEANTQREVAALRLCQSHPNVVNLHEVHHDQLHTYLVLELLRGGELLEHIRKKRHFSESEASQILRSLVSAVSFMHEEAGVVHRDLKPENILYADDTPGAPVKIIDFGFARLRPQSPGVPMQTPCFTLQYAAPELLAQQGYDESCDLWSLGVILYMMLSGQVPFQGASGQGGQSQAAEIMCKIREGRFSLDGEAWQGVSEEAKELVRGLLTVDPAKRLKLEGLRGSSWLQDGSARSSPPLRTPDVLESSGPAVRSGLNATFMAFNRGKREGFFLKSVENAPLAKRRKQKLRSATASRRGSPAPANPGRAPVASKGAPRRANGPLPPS

Sequence of MAP kinase-interacting serine/threonine-protein kinase 1 (Homo sapiens) (Q9BUB5 whole entry, looked up): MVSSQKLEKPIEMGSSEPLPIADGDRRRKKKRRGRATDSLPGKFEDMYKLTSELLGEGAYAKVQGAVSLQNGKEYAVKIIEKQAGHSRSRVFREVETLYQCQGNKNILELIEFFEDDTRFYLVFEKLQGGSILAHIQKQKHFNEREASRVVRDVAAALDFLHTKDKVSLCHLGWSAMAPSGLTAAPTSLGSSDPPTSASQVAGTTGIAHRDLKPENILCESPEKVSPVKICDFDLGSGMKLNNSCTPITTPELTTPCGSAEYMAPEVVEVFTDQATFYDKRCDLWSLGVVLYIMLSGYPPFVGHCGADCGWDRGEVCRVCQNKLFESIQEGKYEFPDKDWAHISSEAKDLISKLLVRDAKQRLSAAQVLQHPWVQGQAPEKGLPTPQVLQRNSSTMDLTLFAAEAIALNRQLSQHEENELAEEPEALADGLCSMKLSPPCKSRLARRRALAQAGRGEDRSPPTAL
Sequence of Tyrosine-protein kinase JAK1 (P23458 whole entry): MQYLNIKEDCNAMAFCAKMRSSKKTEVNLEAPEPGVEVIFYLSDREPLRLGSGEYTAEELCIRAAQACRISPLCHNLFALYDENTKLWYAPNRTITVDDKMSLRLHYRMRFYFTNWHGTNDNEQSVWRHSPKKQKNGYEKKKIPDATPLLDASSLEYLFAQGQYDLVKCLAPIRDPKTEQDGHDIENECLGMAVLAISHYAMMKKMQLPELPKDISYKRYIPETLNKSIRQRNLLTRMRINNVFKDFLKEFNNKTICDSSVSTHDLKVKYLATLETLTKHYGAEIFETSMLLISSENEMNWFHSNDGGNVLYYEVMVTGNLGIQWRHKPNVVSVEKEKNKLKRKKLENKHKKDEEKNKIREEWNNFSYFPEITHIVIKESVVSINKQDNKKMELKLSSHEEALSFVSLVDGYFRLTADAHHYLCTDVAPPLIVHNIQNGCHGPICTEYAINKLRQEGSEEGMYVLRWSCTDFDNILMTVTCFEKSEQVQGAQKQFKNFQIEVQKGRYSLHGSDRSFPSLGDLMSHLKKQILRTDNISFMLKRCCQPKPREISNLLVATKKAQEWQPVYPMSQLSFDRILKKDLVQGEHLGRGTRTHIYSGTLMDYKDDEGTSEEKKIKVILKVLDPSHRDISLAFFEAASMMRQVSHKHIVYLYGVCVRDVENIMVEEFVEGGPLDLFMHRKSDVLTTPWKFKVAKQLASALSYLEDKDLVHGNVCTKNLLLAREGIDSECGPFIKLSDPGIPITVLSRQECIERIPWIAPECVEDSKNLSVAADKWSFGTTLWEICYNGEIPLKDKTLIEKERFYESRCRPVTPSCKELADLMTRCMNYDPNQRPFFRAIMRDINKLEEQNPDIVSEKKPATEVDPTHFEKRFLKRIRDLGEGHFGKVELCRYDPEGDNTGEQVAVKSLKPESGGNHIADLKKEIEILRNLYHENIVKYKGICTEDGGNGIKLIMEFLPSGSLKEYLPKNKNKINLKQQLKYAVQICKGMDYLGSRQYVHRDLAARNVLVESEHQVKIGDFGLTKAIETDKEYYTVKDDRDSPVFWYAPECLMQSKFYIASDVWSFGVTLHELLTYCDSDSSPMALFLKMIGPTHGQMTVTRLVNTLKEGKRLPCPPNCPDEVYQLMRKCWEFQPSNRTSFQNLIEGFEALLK
Sequence of Tyrosine-protein kinase HCK (Homo sapiens) (P08631 2-526 limits assumed): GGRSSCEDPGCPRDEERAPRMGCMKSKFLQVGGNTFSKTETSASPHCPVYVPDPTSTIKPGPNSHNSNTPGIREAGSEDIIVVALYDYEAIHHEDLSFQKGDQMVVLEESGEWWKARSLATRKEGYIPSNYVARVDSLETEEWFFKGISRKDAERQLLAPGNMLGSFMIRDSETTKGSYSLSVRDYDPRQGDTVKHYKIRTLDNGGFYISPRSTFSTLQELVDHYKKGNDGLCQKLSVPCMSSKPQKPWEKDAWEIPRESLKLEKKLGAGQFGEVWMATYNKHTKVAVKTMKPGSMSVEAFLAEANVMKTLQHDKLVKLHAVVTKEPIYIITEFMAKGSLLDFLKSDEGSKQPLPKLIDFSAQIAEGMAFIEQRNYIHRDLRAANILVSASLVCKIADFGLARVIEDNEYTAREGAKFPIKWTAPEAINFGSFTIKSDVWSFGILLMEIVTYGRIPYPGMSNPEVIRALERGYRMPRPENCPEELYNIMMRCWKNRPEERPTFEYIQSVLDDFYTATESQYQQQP
Sequence of Mitogen-activated protein kinase 6 (Homo sapiens) (Q16659 whole entry): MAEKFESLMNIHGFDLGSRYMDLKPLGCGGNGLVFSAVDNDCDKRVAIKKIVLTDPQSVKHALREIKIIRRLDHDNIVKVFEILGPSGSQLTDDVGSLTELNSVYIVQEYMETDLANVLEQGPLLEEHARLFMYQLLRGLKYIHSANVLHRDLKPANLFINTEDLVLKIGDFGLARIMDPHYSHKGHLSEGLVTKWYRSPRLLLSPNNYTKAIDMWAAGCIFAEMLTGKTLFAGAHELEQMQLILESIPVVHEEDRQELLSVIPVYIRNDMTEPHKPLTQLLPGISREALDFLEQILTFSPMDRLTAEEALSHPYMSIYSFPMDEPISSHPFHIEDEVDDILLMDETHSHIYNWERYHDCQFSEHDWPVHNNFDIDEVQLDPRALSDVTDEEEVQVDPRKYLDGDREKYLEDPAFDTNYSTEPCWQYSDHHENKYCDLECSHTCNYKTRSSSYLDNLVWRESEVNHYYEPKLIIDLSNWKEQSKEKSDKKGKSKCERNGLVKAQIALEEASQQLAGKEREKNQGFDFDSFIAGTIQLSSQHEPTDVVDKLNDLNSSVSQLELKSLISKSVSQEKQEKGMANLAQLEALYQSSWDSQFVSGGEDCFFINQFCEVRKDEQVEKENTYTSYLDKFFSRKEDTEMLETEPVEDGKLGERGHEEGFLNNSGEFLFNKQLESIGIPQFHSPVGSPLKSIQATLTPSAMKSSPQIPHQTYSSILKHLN
Sequence of MAP kinase-activated protein kinase 2 (P49137 whole entry, looked up): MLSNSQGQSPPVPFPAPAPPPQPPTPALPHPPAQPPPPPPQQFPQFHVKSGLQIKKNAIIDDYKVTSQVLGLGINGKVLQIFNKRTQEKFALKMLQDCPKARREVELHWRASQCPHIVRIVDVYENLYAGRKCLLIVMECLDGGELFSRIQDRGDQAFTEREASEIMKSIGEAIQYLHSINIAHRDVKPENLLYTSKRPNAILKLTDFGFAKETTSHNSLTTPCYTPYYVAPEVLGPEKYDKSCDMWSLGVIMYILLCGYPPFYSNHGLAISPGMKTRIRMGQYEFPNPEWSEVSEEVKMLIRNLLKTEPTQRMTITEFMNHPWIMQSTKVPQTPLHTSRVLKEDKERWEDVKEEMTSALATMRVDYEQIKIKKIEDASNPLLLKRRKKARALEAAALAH
Sequence of Cyclin-dependent kinase 14 (Homo sapiens) (O94921 whole entry): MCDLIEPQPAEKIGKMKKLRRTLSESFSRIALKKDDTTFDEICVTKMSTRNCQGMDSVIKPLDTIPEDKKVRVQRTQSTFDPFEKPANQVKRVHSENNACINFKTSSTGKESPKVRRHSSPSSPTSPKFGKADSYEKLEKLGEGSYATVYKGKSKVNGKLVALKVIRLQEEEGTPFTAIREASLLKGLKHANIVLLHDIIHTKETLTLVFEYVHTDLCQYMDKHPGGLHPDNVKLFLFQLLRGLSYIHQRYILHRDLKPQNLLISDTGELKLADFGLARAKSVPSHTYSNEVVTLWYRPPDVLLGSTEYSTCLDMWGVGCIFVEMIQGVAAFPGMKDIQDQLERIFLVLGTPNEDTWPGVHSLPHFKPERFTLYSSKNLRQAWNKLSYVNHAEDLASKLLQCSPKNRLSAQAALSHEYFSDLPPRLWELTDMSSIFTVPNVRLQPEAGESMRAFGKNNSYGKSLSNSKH

SMILES: COc1cc(Nc2nc(C)cc(-c3cnn4nc(OC)ccc34)n2)cc(C(F)(F)F)c1
% of control [1]: 85%

% of inhibition [2]: -7.5% | % of inhibition [3]: 9.2% | % of inhibition [4]: -16.5%
SMILES: CC[C@@H]1[C@H](F)C(=O)N[C@@H]1COc1nccc2cc(C(N)=O)c(OC)cc12 [ZIMLOVISERTIB]

IC50 [5]: 10.2 µM
SMILES: CN1Cc2nccc(-c3cn(C)nc3-c3ccc(F)cc3)c2C1=O

SMILES: Cc1cc(F)c(C(=O)Nc2cccc(-c3nncn3C(C)C)n2)cc1-n1cnc(C2CC2)c1
% of control [6]: 81%

% of control [7]: 100%
SMILES: CCN(CC)CCCCNc1ncc2cc(-c3cc(OC)cc(OC)c3)c(NC(=O)NC(C)(C)C)nc2n1

SMILES: COCC(=O)NC/C=C/c1ccc2ncnc(Nc3ccc(Oc4ccc(C)nc4)c(C)c3)c2c1 [CP-724714]
% of control [8]: 98%

SMILES: COc1cc(N(C)c2ccnc3ccc(C(F)(F)F)cc23)cc(OC)c1OC
% binding [9]: 44%

SMILES: Nc1cnc(N2CCc3cc(S(=O)(=O)Nc4c(F)cc(Cl)cc4F)cc(N4CCCC4=O)c32)nc1 [TP-020n]
% of control (Ephrin type-A receptor 4): 100%

SMILES: CCC(=O)N1CCN(c2ccc(-n3c(=O)ccc4cnc5ccc(-c6cnc7ccccc7c6)cc5c43)cc2C(F)(F)F)CC1
% of control [10]: 100% | % of control [11]: 100%

SMILES: C=CC(=O)Nc1cc(-n2c(=O)ccc3cnc4ccc(-c5ccc(NS(C)(=O)=O)cc5)cc4c32)ccc1C
% of control ([12]; at 1 µM): 100% | % of control ([12]; at 10 µM): 100%

SMILES: CNC(=O)Nc1ccc(-c2nc(N3CC4CCC(C3)O4)c3cnn(C4CCC5(CC4)OCCO5)c3n2)cc1
% of control [13]: 100%
